Experimental data as given in BigSolDB 2.1.

Settings: in NMP

O=C1OC(=O)[C@H]2[C@@H]1[C@@H]1C=C[C@H]2C1
Settings	solubility (mole fraction)
278.15 K	0.112
283.15 K	0.126
288.15 K	0.14
293.15 K	0.156
298.15 K	0.172
303.15 K	0.19
308.15 K	0.209
313.15 K	0.225
318.15 K	0.245
323.15 K	0.265
